Test [1] deals with T1, Heat shock factor protein 1 (Mus musculus, UniProt P38532).
T1 sequence (P38532 whole entry): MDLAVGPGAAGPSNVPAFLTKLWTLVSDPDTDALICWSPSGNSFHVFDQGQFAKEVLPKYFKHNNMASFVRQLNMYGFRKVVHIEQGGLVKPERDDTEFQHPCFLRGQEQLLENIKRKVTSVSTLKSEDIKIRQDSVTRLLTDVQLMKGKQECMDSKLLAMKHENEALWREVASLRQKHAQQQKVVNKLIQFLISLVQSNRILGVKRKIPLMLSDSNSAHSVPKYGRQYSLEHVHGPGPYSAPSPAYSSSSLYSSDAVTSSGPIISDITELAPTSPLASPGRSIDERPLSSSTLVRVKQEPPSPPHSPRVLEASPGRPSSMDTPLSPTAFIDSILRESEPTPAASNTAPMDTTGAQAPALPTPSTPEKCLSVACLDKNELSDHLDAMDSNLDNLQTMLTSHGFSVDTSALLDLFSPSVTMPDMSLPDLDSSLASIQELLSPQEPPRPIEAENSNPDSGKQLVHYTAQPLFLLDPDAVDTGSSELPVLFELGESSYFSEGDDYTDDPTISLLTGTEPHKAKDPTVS
The experiment in a line: inhibition of MG132-induced HSE-luciferase signal, confirmation, cell-based, NIH3T3, luminescence, dose retest (AID 2382).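 Also: NIH3T3 fibroblasts with HSF1-driven luciferase reporter stressed by proteasome inhibitor MG132; luminescence from HSF1-driven luciferase expression after 8 hours of MG132 stress.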 It is filed as functional.

Test [2] has as its system Streptococcus sp. 'group A'. The test can be described thus: growth inhibition of control SK(-) GAS strain, dose response, counter-screen for streptokinase expression inhibitor project, luminescence, kanamycin, BacTiterGlo, confirmation (AID 1900). To be noted: read-out: EC50. It is filed as functional, organism-based. (A counterscreen serves to expose hits that act by an unwanted route or on another target.)

The subject of another test is Streptococcus. The experiment in a line: Group A Streptococcus viability loss, dose response, counter-screen for streptokinase expression inhibitor project, luminescence, BacTiterGlo (AID 1915).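 Also: potency for reduction of bacterial viability or growth.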 It is filed as functional, organism-based.
Test [3] can be described thus: inhibitors of firefly luciferase expression or activity, dose response, H4 neuroglioma cells, luminescence (AID 1990). It is filed as functional, cell-based.
A short description of test [4]: Luminescence Cell-Based Dose Response HTS to Identify Inhibitors of 5'UTR Stem-Loop Driven Prion Protein mRNA Translation in H4 Neuroglioblastoma Cells. [Related pubchem assays: 1827 (Project Summary), 1813 (Primary HTS)]. It is filed as functional.
For another test, the target named is T2, Streptokinase A (Streptococcus pyogenes serotype M1, UniProt P10520).
T2 sequence (P10520 whole entry): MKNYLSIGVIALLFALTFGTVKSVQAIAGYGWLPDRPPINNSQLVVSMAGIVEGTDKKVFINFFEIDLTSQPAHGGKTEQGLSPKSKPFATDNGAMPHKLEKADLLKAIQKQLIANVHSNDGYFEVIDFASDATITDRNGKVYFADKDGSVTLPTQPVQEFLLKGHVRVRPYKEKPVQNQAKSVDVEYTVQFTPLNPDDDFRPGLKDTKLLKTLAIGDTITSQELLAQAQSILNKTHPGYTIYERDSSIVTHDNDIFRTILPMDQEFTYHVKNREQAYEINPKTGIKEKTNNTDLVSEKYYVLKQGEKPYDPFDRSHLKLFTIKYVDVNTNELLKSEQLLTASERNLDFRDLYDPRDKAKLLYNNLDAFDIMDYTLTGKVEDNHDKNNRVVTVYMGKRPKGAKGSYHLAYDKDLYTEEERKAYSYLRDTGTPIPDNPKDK
The test can be described thus: S. pyogenes streptokinase expression inhibitors, potency, dose response, plasminogen activation absorbance, OD405 (AID 1914).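 Also: secreted streptokinase activity via plasminogen activation per viability signal from cell pellet.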 It is filed as functional, Streptococcus pyogenes M1 GAS.

A short description of test [5]: inhibitors of SNCA 5'UTR-driven reporter translation, confirmation, H4 neuroglioma cells, luminescence (AID 1988). It is filed as functional, cell-based.
A further test deals with Cytochrome P450 2C19 (Homo sapiens, UniProt P33261). The experiment in a line: Cytochrome panel assay with activity outcomes. Panel member name: p450-cyp2c19 Compounds with AC50 equal or less than 10 uM are considered active. It is filed as functional. To be noted: read-out: AC50.
Sequence of Cytochrome P450 2C19 (P33261 whole entry): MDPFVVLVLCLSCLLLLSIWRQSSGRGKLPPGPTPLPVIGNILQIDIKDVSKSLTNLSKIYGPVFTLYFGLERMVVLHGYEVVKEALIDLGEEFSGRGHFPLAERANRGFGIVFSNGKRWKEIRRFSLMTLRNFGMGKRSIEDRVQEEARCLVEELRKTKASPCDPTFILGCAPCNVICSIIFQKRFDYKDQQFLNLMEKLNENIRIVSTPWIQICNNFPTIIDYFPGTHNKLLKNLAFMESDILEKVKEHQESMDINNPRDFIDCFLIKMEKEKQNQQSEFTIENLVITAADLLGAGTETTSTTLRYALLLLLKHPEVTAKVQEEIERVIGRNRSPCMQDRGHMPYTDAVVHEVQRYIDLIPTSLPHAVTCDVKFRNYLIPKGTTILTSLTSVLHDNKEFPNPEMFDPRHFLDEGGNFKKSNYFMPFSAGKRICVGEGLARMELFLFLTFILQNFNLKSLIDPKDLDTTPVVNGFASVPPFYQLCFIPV
The target of a further test is Cytochrome P450 2C9 (Homo sapiens, UniProt P11712).
Sequence of Cytochrome P450 2C9 (P11712 whole entry): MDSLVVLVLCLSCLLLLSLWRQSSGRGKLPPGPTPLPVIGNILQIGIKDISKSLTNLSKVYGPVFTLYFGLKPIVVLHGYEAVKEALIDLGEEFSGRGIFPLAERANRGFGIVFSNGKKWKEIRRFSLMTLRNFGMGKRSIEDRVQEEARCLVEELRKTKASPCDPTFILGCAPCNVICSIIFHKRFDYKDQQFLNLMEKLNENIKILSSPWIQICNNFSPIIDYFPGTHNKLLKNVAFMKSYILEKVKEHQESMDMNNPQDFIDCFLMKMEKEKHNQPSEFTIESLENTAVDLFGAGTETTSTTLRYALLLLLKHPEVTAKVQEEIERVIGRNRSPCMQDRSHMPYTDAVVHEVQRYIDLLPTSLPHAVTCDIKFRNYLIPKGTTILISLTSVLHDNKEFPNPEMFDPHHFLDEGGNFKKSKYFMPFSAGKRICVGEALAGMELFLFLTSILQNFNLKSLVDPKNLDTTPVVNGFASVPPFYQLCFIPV
Test [6] deals with T1, Heat shock factor protein 1. The test can be described thus: HSF1 potentiators in luciferase reporter cells, confirmation, cell-based, NIH3T3, luminescence, dose retest (AID 435004).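 Also: stress induced by proteasome inhibitor MG132 added 30 min after compound; luciferase reporter driven by HSF1 response element in NIH3T3 cells; actives raise luminescence as potentiators of the MG132 stress response.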 It is filed as functional. (In a reporter assay the amount or activity of a reporter protein is the signal.)
A short description of test [7]: cytotoxicity toward NIH3T3 fibroblasts, dose response, counter-screen, cell-based, ATP luminescence, mouse fibroblasts (AID 2010).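 Also: cells exposed to compound for about 90 hours before reading.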 It is filed as functional.
A short description of test [8]: inhibitors of intracellular T. cruzi replication, confirmation, NIH3T3 host cells, beta-gal luminescence (AID 2044).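 Also: intracellular parasites grown in NIH/3T3 mouse fibroblasts as host cells; luminescent beta-galactosidase reporter signal from transgenic T. cruzi replicating inside host cells; inhibitors lower the luminescence signal.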 It is filed as functional, cell-based.
Another test concerns the target Cytochrome P450 3A4 (Homo sapiens, UniProt P08684).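 Also: CYP3A4 tested as one member of a cytochrome P450 panel screen.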
Test [9] in a line: Luminescence Cell-Based Dose Retest to Confirm Inhibitors of Cancer Stem Cells. [Related pubchem assays (depositor defined):AID2717, AID2721]. To be noted: Homo sapiens. It is filed as functional, Homo sapiens.

SMILES strings stand for the structures. The source made the active and inactive calls.

Sequence of Cytochrome P450 3A4 (P08684 whole entry): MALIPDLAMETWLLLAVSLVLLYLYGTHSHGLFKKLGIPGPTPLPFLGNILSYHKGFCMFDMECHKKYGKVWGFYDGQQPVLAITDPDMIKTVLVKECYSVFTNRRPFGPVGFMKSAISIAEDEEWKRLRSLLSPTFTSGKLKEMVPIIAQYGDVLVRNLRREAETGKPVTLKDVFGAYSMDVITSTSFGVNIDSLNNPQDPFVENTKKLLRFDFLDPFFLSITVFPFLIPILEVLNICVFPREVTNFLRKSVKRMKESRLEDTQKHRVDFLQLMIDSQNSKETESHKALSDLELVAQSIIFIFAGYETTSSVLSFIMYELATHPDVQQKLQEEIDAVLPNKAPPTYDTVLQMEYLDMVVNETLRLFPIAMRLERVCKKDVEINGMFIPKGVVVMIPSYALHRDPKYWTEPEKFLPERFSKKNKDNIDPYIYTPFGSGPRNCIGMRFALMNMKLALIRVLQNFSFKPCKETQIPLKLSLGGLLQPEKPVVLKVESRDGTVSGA

A word on the EC50: it is the concentration that produces a half-maximal response. As for `CCOC(=O)N1CCN(C(=O)C2CCN(Cc3ccc(OC)cc3OC)CC2)CC1`, the EC50 in test [1] was > 195 µM (not active).

With `COc1ccc(-c2csc(NC(=O)c3ccc(C(C)(C)C)cc3)c2C(=O)O)cc1`, the concentration giving a half-maximal response (EC50) in test [2] was 1.75 µM (active); in the test on Streptococcus it was 7.24 µM (active); in test [3] it was 14.5 µM (active); in [4], 4.3 µM (active); at Streptokinase A, 3.12 µM (inconclusive); in test [5], 11.5 µM (active).

The AC50 is the midpoint of the concentration-response curve, whichever way the signal moves. As to `CCCn1nc2cc(C(=O)NCc3ccc(C)cc3)ccc2c1OC`, the figures for the AC50 on Cytochrome P450 2C19 and at Cytochrome P450 2C9 were 22.4 µM (inconclusive) and 20 µM (inconclusive), respectively.

As for `CCc1n[nH]c2c1C1(CCN(C(=O)OCc3ccccc3)CC1)C(C#N)=C(N)O2`, in test [6], the EC50 is 33.9 µM (active).

Turning to `CSCC[C@H](NC(=O)N1CCn2c1nc1ccccc12)C(=O)NCc1ccc(F)cc1`, in [6], the EC50 was > 260 µM (inactive).

As for `CS(=O)(=O)c1ccc(NC(=O)c2ccc3c(c2)S(=O)(=O)N=C2CCCCCN23)cc1`, the EC50 in test [1] was > 195 µM (not active).

Take `O=C(NCc1ccco1)c1ccccc1-c1ccc(C(F)(F)F)cc1`: in [1], the EC50 is listed as > 195 µM (not active).

For `CC(C)(C)c1ccc(C(=O)N2CCN(C(=O)c3ccco3)CC2)cc1`, the EC50 (in test [2]; in the test on Streptococcus; at Streptokinase A) was > 150 µM (not active) throughout.

In the case of `NC(=O)Cc1ccc2c(c1)[nH]c1ccccc12`, in test [6], the EC50 was > 260 µM (inactive).

For `CCCCOCCCN1CC(=O)N2[C@@H](Cc3c([nH]c4ccccc34)C2(C)C)C1=O`, the EC50 in test [6] is > 260 µM (inactive).

Regarding `C/C(Cl)=C/Cc1c(C)nc2ccc(C)cc2c1O`, the EC50 in test [6] was > 260 µM (inactive); in test [7] it was > 30 µM (not active); in test [8], 0.324 µM (active).

With `CC(=O)[C@]1(O)CC[C@@H]2[C@H]3C[C@@H](C)C4=CC(=O)CC[C@@]4(C)[C@H]3[C@@H](O)C[C@]21C`, the AC50 was 7.94 µM (inconclusive) at Cytochrome P450 2C9 and 3.98 µM (inconclusive) at Cytochrome P450 3A4.

On to `Cc1ccc(N2C(=O)N(CC(=O)NC(N)=O)C(=O)C2C)cc1` (stereo unspecified), for which the EC50 in test [1] was > 195 µM (not active).

Turning to `O=C(CCn1nc(-c2ccc(Cl)cc2)ccc1=O)N1CCOCC1`, the AC50 at Cytochrome P450 2C9 is 10 µM (inconclusive); at Cytochrome P450 3A4 it was 25.1 µM (inconclusive).

Turning to `CC(C)[C@@]1(NC(=O)[C@@H]2C[C@H]3c4cccc5[nH]cc(c45)C[C@@H]3N(C)C2)O[C@]2(O)[C@H]3CCCN3C(=O)CN2C1=O`, the AC50 on Cytochrome P450 2C19 is 5.01 µM (inconclusive); on Cytochrome P450 2C9 it was 6.31 µM (inconclusive).

In the case of `S=C(Nc1cccc(Cl)c1)N(CCCN1CCCC1)Cc1cccn1Cc1ccc(Cl)cc1`, the half-maximal activity concentration (AC50) in test [9] is 6.16 µM (active). Besides, the EC50 in test [6] was > 120 µM (inactive).

Take `O=C(NCCc1cccc(Cl)c1)c1cc2ccccc2oc1=O`: the EC50 in [6] is > 260 µM (inactive).

For `C=CCn1c(S)nnc1-c1cccc2ccccc12`, in [1], the EC50 was > 195 µM (not active).

Turning to `CC(C)c1ccc(C(=O)CC2(O)C(=O)N(CN3CCOCC3)c3ccccc32)cc1` (stereo unspecified), the AC50 on Cytochrome P450 2C9 was 12.6 µM (inconclusive).

As for `O=C(CSc1nc(O)c2cnn(-c3ccccc3)c2n1)N1N=C(c2cccs2)CC1c1ccc(F)cc1` (stereo unspecified), the 50% effective concentration (EC50) in test [2] is 3.15 µM (active); in the test on Streptococcus, 7.18 µM (active); at Streptokinase A, > 150 µM (not active).

Consider `COCCNC(=O)Cn1cnc2c1c(=O)n(C)c(=O)n2C`, for which the EC50 in [6] was > 260 µM (inactive).

With `COc1ccc(CNCC(O)COc2ccc(C(C)(C)c3ccccc3)cc2)cc1` (stereo unspecified), the AC50 in test [9] is 3.38 µM (active). Further, the EC50 in [6] was > 260 µM (inactive).

With `CCc1ccc(CN(C)Cc2nc(-c3cccc(Cl)c3)no2)nc1`, the EC50 was 18.4 µM (active) in [2], > 150 µM (not active) in the test on Streptococcus and > 150 µM (not active) on Streptokinase A.

As to `COc1cccc(C(=O)c2c[nH]c(C(=O)NCc3ccco3)c2)c1`, the EC50 in test [1] is 19.9 µM (active).

As for `O=C(Cn1nc(-c2ccccc2)ccc1=O)N1CCCCC1`, in test [1], the EC50 is > 195 µM (not active).

On to `COc1ccccc1CNC(=O)C(C)NS(=O)(=O)c1ccc(Br)cc1` (stereo unspecified), for which the EC50 in test [1] is > 195 µM (not active).

Take `CC[C@H]1C2=C3C(CC[C@H]4C(OCc5ccc(F)cc5C(F)(F)F)OC[C@](C)([C@@H]34)N(C(=O)OC(C)(C)C)C2)C(COC(C)=O)C1COC(C)=O` (stereo partly specified): the AC50 was 15.8 µM (inconclusive) on Cytochrome P450 2C19, 31.6 µM (inconclusive) at Cytochrome P450 2C9 and 2.51 µM (inconclusive) at Cytochrome P450 3A4.

For the compound `CCOC(=O)C[n+]1c(C)csc1C`, the half-maximal effective concentration (EC50) in test [1] is recorded as > 195 µM (not active).

Regarding `O=C1c2ccccc2C(O)N1c1ccccc1` (stereo unspecified), in test [1], the EC50 was > 195 µM (not active).

For `O=C(Cn1cc([N+](=O)[O-])cn1)NCC1CCCO1` (stereo unspecified), the EC50 in test [1] was > 195 µM (not active).

In the case of `Cn1c(=O)c2cn(-c3ccccc3)cc2n(C)c1=O`, the AC50 at Cytochrome P450 2C19 is 17.8 µM (inconclusive); on Cytochrome P450 2C9, 25.1 µM (inconclusive).

Turning to `C=CCNC(=S)Nc1sc2c(c1C#N)CCCC2`, in test [1], the EC50 was > 195 µM (not active).

Take `CCOC(=O)c1c[nH]nc1C(F)(F)F`: in test [6], the EC50 was > 260 µM (inactive).

In the case of `Cc1oc2ccc(OCc3c(F)cccc3Cl)cc2c1C(=O)O`, in test [1], the EC50 is on record as > 195 µM (not active).

Regarding `Cc1cccc(Nc2nc(N)nc(CN3CCN(c4ccccc4F)CC3)n2)c1`, the EC50 in test [2] was 7.31 µM (active); with Streptococcus, 45.8 µM (active); at Streptokinase A, > 150 µM (not active).

In the case of `N/C(S)=N/CCC[C@@H](N)C(=O)O`, the AC50 on Cytochrome P450 2C9 is 15.8 µM (inconclusive); on Cytochrome P450 3A4, 0.2 µM (inconclusive).

For the compound `COc1ccc(CNC(=O)Oc2ccccc2)cc1Cl`, the EC50 in test [6] is 62.3 µM (active).

Consider `CCN(CC)S(=O)(=O)c1cccc(C(=O)N[C@H](C(=O)OCC(=O)NC(=O)NC)C(C)C)c1`, for which the figures for the AC50 at Cytochrome P450 2C9 and on Cytochrome P450 3A4 were 0.708 µM (inconclusive) and 14.1 µM (inconclusive), respectively.

`N#Cc1cnn2c(=O)c3c([nH]c12)CCCC3`: on Cytochrome P450 2C9, the AC50 was 11.2 µM (inconclusive).

With `Cc1cc(C)c(C2C3=C(Nc4c2c(C)nn4-c2ccccn2)c2ccccc2C3=O)c(C)c1` (stereo unspecified), the EC50 is 7.61 µM (active) in [2]; 128 µM (active) in the test on Streptococcus; 17 µM (active) in test [3]; > 120 µM (not active) in test [4]; 22.2 µM (active) at Streptokinase A; 19.9 µM (active) in [5].

The record behind these values is ChEMBL document CHEMBL1201862, “PubChem BioAssay data set” (2004).
